The source of these data is PMC11602115 (Journal of Medicinal Chemistry, 2017).

Where two headings read alike, the source gives them in different places.

The target of test [1] is T1, EP3v6 (Homo sapiens, UniProt P43115).
T1 sequence (P43115 1-374 isoform P43115-4): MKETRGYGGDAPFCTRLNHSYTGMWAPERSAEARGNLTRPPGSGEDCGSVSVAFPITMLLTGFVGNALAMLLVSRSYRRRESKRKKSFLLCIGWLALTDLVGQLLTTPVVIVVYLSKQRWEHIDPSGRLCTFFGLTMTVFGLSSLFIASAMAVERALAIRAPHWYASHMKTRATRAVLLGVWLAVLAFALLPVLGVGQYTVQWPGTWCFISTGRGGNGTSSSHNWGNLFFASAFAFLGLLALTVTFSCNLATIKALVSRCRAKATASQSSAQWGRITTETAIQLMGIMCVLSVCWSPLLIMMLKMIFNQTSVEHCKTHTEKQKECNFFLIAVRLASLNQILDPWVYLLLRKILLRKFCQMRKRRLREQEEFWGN
In words: Radioligand binding, EP3v6 ([3H]-PGE2). Also noted: purchased MDS Pharma (Taiwan) and CEREP (France), contract assays. The conditions noted are these: for Ki: cloned human receptor. The procedure:
Additional (non-IP) receptor binding assays were carried out by MDS Pharma (Taiwan) and CEREP (France).

The target in another test is IP (Homo sapiens, UniProt P43119). As to the kind of experiment: HTRF cAMP assay, recombinant human IP receptor stably expressed in CHO-K1 cells. The test is classed as cell-based. Also noted: expressed in transfected cells.
IP, sequence (P43119 whole entry): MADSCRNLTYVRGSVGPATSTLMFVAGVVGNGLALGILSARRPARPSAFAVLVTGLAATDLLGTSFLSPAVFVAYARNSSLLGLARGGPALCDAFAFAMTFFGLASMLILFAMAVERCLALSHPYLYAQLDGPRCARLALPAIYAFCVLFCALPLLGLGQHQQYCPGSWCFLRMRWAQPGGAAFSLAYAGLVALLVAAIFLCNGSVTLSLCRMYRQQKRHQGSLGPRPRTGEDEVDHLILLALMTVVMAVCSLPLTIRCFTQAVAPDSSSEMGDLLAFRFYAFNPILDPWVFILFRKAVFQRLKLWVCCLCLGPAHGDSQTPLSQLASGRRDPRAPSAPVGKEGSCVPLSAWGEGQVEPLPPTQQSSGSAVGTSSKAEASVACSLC
The next test has as its target EP2 (Homo sapiens, UniProt P43116). As to the kind of experiment: cAMP HTRF agonist assay, EP2. It counts as cell-based. The note with it: for agonist activity at EP2: HTRF cAMP functional assay. An excerpt: (§1) Table Sup2: Data with some comparator compounds in functional assays. […]
A general note: In TR-FRET formats the signal depends on donor and acceptor labels being close together.

Test [2] addresses T2, rat IP (Rattus norvegicus, UniProt P43253). As to the kind of experiment: HTRF cAMP assay, recombinant rat IP receptor. The conditions noted are these: for EC50: HTRF (cAMP) rat IP receptor assay, mean of at least three determinations; for Emax: read-out: rIP % IA. Also noted: expressed in transfected cells. The test is classed as cell-based.
The target of a further test is EP4 (Homo sapiens, UniProt P35408). As to the kind of experiment: cAMP HTRF agonist assay, EP4. The note with it: for agonist activity at EP4: HTRF cAMP functional assay. The test is classed as cell-based. The source says: Table Sup2: Data with some comparator compounds in functional assays.
EP4, sequence (P35408 whole entry): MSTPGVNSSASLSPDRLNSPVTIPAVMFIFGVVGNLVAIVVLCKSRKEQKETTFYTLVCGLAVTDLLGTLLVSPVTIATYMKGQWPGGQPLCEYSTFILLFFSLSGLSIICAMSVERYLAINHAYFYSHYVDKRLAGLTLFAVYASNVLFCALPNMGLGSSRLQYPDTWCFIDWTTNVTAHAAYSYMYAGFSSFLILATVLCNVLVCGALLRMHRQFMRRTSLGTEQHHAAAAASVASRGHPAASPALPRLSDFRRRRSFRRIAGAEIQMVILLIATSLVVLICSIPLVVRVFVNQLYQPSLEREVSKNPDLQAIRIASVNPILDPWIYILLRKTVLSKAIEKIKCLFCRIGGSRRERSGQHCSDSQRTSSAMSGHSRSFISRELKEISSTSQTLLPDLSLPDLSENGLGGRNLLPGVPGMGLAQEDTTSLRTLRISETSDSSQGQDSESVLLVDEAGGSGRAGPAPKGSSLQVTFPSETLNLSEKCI
Compound DP1 EP1 EP2 EP3v6 EP4
EC50, µµµµM (% I.A) EC50, µµµµM (% I.A) EC50, µµµµM (% I.A) EC50, µµµµM (% I.A) EC50, µµµµM (% I.A)
n = 3 n = 2 n = 8 n = 6 n = 6 […]

Test [3] addresses T1, EP3v6. As to the kind of experiment: Melanophore dispersion assay, EP3v6. The conditions noted are these: for EC50 / EP3v6 % I.A: melanophore dispersion assay (Gi); for behaviour at EP3 in melanophore platform: potencies similar to binding affinities. Also noted: expressed in transfected cells; host or cells: melanophores (transient, electroporation). It counts as cell-based. The procedure:
For the EP3v6 receptor functional assay, melanophores were transfected by electroporation using 20 μg of recombinant human EP3v6 receptor plasmid DNA per 400 μL of cell suspension. Transfected cells were immediately resuspended in fresh growth medium and plated in 384-well clear, polystyrene microplates. Plated cells were incubated at 27 °C for 48 h after transfection in order to achieve optimal receptor expression. To perform the assay, growth medium was removed from the assay plates and replaced with assay buffer (40 μL/well, 0.7× PBS, pH 7.3, supplemented with 20 nM melatonin to induce pigment aggregation). Following a 90 min incubation at room temperature, a 650 nm absorbance reading was collected and test compounds (10 μL per well) were transferred to the assay plates. Plates were incubated for 90 min at room temperature to allow compound-induced pigment redistribution to take place, and final absorbance reading was then collected. Test compounds were solubilized and serially diluted in DMSO, using 5-fold dilutions, to generate a 10-point dose–response curve with a top concentration of 10 μM (final assay concentration). Samples were then further diluted in assay buffer to achieve a 5× stock prior to addition to the assay plates. A SpectraMax absorbance plate reader (Molecular Devices, Inc.) was used for data collection.
as §1

For the next test, the target named is dog IP (Canis lupus familiaris, UniProt A0A8I3MUB8). As to the kind of experiment: Radioligand binding, dog IP ([3H]-iloprost). The procedure: (§2) CHO-K1 cells expressing recombinant IP receptors were harvested, washed with ice-cold phosphate buffered saline, pH 7.4 (PBS), and then centrifuged at 48 000g for 20 min at 4 °C. The resulting cell pellet was then resuspended in ice-cold PBS containing 20 mM HEPES, pH 7.4, and 0.1 mM EDTA, homogenized on ice using a Brinkman Polytron, and centrifuged (48 000g for 20 min at 4 °C). This resuspension and centrifugation process was repeated one further time. Crude membrane pellets were stored at −80 °C until used for radioligand binding assays.
dog IP, sequence (A0A8I3MUB8 1-381): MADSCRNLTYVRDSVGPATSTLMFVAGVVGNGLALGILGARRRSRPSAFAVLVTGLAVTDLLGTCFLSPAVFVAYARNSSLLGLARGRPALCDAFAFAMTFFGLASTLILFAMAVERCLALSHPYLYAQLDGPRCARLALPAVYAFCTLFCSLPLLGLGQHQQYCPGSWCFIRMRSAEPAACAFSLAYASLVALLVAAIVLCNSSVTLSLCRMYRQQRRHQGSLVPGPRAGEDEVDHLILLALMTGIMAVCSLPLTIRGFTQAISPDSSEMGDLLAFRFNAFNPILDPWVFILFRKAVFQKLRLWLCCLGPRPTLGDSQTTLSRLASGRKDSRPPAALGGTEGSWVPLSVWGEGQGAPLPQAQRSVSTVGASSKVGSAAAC
(§3) Assay incubations were terminated by rapid filtration through PerkinElmer GF/C filtration plates pretreated with 0.3% PEI, under vacuum pressure using a 96-well Packard filtration apparatus, followed by multiple washes with ice-cold wash buffer (PBS containing 20 mM HEPES and 0.1 mM EDTA, pH 7.4). Plates were then dried at 45 °C for a minimum of 2 h. Finally, 25 μL of BetaScint scintillation cocktail was added to each well and plates were counted in a Packard TopCount scintillation counter. In each competition study, test compounds were dosed at 10 concentrations with triplicate determinations at each test concentration. A reference compound, typically iloprost, was included in every runset for quality control purposes.

The target of test [4] is T2, rat IP. As to the kind of experiment: Radioligand binding, rat IP ([3H]-iloprost). Also noted: expressed in transfected cells; host or cells: CHO-K1 (crude membranes). The procedure: as §2, §3
Where [5] appears, read: read-out: Ki dog IP ([3H]-iloprost).

EP2, sequence (P43116 whole entry): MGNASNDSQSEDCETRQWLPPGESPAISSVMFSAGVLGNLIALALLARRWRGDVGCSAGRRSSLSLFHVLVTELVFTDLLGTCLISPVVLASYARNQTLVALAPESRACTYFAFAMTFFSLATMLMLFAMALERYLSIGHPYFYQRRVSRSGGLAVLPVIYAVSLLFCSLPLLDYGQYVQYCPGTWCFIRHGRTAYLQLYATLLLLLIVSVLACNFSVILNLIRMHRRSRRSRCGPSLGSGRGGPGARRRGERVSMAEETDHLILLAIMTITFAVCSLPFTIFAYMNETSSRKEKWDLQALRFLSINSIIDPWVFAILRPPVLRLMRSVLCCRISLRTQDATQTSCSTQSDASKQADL
T2 sequence (P43253 whole entry): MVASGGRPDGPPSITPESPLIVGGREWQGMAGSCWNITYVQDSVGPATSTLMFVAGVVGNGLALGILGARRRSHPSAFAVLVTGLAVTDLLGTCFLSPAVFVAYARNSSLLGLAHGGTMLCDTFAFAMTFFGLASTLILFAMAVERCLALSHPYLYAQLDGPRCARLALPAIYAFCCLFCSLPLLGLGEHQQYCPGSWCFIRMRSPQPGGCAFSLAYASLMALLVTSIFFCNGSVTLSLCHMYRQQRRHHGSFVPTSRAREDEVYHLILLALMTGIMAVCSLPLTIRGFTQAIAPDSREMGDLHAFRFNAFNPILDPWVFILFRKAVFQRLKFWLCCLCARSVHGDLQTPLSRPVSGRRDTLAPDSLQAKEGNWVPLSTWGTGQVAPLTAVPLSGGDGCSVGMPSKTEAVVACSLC

With `O=C(O)COC[C@H]1CC[C@H](COC(=O)N(c2ccccc2)c2ccc(Cl)cc2)CC1` [5c, Sodium 2-(((1r,4r)-4-(((4-Chlorophenyl)(phenyl)carbamoyloxy)methyl)cyclohexyl)methoxy)acetate], the inhibition constant (Ki) was 143 nM on EP3v6 [1], 256 nM on dog IP (setting [5]) and 76 nM on rat IP [4]. Also, the Emax is 85% at IP (CHO-K1, read-out: hIP % IA) and 88% at rat IP [2]. For the same compound, the “agonist activity at EP2” value at EP2 is given as “no significant agonist activity”. In addition, the EC50 is more than 10000 nM at EP2 (cAMP HTRF agonist assay), 530 nM on rat IP [2], more than 10000 nM at EP4 (cAMP HTRF agonist assay) and 230 nM on EP3v6 [3]. Further, the “agonist activity at EP4” value at EP4 is on record as “no significant agonist activity”. Further, on EP3v6 [3], the “EP3v6 % I.A” value is 98%. The “behaviour at EP3 in melanophore platform” value on EP3v6 [3] is “behaved as EP3 agonists”.
In the case of `O=C(O)COC[C@H]1CC[C@H](COC(=O)N(c2ccccc2)c2cccc(F)c2)CC1` [5g, 2-(((1r,4r)-4-(((3-Fluorophenyl)(phenyl)carbamoyloxy)methyl)cyclohexyl)methoxy)acetic Acid], the Ki at EP3v6 [1] was 210 nM; at dog IP (setting [5]), 183 nM; at rat IP [4], 51 nM. Further, on EP3v6 [1] (human EP3v6 Ki versus human IP Ki), the “EP3/IP binding selectivity ratio” value was 30- to 50 fold. Further, the Emax at IP (CHO-K1; read-out: hIP % IA) was found to be 85%; on rat IP [2], 83%. In addition, the 50% effective concentration (EC50) at IP (HTRF (cAMP) human IP receptor assay; mean of at least three determinations) was 8.7 nM; on rat IP [2] it was 284 nM. Also, the “agonist activity at EP2” value on EP2 was “no significant agonist activity”. Further, the “agonist activity at EP4” value on EP4 is “no significant agonist activity”. The “behaviour at EP3 in melanophore platform” value on EP3v6 [3] is recorded as “behaved as EP3 agonists”.
As for `CC#CCC(C)[C@H](O)/C=C/[C@@H]1[C@H]2C/C(=C/CCCC(=O)O)C[C@H]2C[C@H]1O` (stereo partly drawn) [iloprost], the Ki at EP3v6 [1] was 3700 nM; at dog IP, 1.7 nM; at rat IP [4], 1 nM. The Emax at IP (CHO-K1, read-out: hIP % IA) was found to be 101%; on rat IP [2], 99%. Besides, the EC50 at EP2 (cAMP HTRF agonist assay) amounted to 144 nM; on rat IP [2], 0.69 nM; at EP4 (cAMP HTRF agonist assay), 410 nM; on EP3v6 [3], 280 nM. For the same compound, the “EP2 % I.A” value on EP2 (cAMP HTRF agonist assay) stood at 110%. Also, the “EP4 % I.A” value at EP4 (cAMP HTRF agonist assay) is on record as 96%. Further, the “EP3v6 % I.A” value at EP3v6 [3] came to 68%.

The term Ki denotes a measure of affinity in units of concentration, obtained from inhibition or displacement. By EC50 is commonly meant the concentration needed to bring the measured effect to its halfway point.
